Reference: paper PMC4047118, “BM-1197: A Novel and Specific Bcl-2/Bcl-xL Inhibitor Inducing Complete and Long-Lasting Tumor Regression In Vivo” (PLoS ONE, 2014)
Values joined by “and” are separate entries in the source; they are usually repeats but may differ in a detail not shown here. Equal entries are not always repeated. Where two headings read alike, the source gives them in different places.

Experiments:
[1] = test system: panel of 12 SCLC cell lines; test: growth inhibition in a panel of 12 SCLC cell lines (summary); format: cell-based, human; settings: for IC50: Homo sapiens
Procedure: (§1) All the SCLC cell lines were purchased from American Type Culture Collection (Manassas, VA) and cultured as recommended. All these cell lines were passaged fewer than 6 months after purchase. MCL1 knockout (MCL1^−/−) MEF cells were kindly provided by Dr. David Huang (The Walter and Eliza Hall Institute of Medical Research, Melbourne, Australia). Cell growth inhibition was evaluated by means of a WST-8 assay (Dojindo, Rockville, MD) as described previously. Mitochondrial membrane potential was determined by JC-1 staining using a JC-1 Mitochondrial Membrane Potential Assay kit (Cayman). Apoptosis analysis was performed using an Annexin V/propidium iodide (PI) apoptosis detection kit (Roche Applied Sciences, Indianapolis, IN).

Bcl-2 [2] = target: Bcl-2 (Homo sapiens, UniProt P10415); test: fluorescence-polarization (FP) binding assay, Bcl-2; settings: means ± SD (n≥3)
Sequence of Bcl-2 (Homo sapiens, UniProt P10415) (P10415 whole entry): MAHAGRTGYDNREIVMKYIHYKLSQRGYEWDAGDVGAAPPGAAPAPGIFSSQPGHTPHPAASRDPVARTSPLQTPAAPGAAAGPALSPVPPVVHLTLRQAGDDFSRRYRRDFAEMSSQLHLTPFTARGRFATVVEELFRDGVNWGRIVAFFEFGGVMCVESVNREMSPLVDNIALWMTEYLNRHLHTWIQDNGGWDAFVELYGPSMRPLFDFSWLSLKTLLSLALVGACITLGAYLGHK
From the text: BM-1197 ( Fig 1 ), was synthesized in a similar manner as described for BM-1074 [16]. We evaluated the binding affinities of BM-1197 to Bcl-2, Bcl-xL and Mcl-1 proteins using our optimized fluorescence-polarization (FP) binding assays.
Data are expressed as means ± SD (n≥3).

DMS53 = test: SCLC cell growth inhibition (WST-8), DMS53; format: cell-based; settings: Homo sapiens, DMS-53; 96-h incubation, means ± SD (n = 3–6)
Procedure: as §1

DMS273 = test: SCLC cell growth inhibition (WST-8), DMS273; format: cell-based; settings: Homo sapiens, DMS-273; 96-h incubation, means ± SD (n = 3–6)
Procedure: as §1

H146 = test: SCLC cell growth inhibition (WST-8), H146; format: cell-based; settings: Homo sapiens
Procedure: as §1
Data are representative of two independent experiments.

H211 = test: SCLC cell growth inhibition (WST-8), H211; format: cell-based; settings: Homo sapiens, NCI-H211; 96-h incubation, means ± SD (n = 3–6)
Procedure: as §1

Bcl-2 [3] = target: T1, Bcl-2 (Mus musculus, UniProt P10417); test: cellular thermal shift assay (CETSA), Bcl-2; format: cell-based; settings: 1 µM, 1 h, MEF MCL1−/− cells
T1 construct: endogenous in cells; host or cells: MEF MCL1-/- cells
T1 sequence (P10417 whole entry): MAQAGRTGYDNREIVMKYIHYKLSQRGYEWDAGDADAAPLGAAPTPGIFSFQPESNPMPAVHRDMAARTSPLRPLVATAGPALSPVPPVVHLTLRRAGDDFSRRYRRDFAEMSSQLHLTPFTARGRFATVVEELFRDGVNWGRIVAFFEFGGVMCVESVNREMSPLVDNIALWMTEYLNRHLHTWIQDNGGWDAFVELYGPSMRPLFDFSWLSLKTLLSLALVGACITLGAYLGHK
Procedure: (§2) Drug-target engagement was assessed using CETSA as described by Molina et al.. Briefly, cells were treated with drugs for 1 h, then harvested, washed with PBS, and resuspended in PBS. The resuspended cells were freeze-thawed 4 times. The soluble fraction (lysate) was separated from cell debris by centrifugation at 20000×g for 20 minutes at 4°C and then analyzed by Western blots.
(§3) Drug-treated cells were heated at gradient temperature from 42°C to 62°C for 3 min then freeze-thawed 4 times. The soluble fractions of the lysed cells were analyzed by immunoblotting. (B) MEF MCL1^− ^/− cells were treated with drugs at the indicated doses for 1 h before collected for CETSA.

SW1271 = test: SCLC cell growth inhibition (WST-8), SW1271; format: cell-based; settings: Homo sapiens, 96-h incubation, means ± SD (n = 3–6)
Procedure: as §1

H146 xenograft tumors = test: H146 subcutaneous xenograft model; format: in vivo, SCID mice
Procedure: (§4) Tumor sizes were measured 2–3 times per week. Tumor growth inhibition was calculated by using the formula: 100% (mean volume of controls - mean volume of treated)/mean volume of controls.
(§5) Figure 10 In vivo antitumor activity of BM-1197. […] Data shown are mean ± SEM for 6–8 mice. (E & F) SCID mice bearing H146 or H1963 cells were treated with 10 mg/kg of BM-1197 IV for the indicated times. Tumor lysates were analyzed by immunoblotting.

H196 = test: SCLC cell growth inhibition (WST-8), H196; format: cell-based; settings: Homo sapiens, NCI-H196; 96-h incubation, means ± SD (n = 3–6)
Procedure: as §1

[4] = test system: MCL1-deficient (MCL1−/−) MEF cells; test: cell growth inhibition, WST assay, MCL1-deficient MEF; format: cell-based, mouse
Procedure: as §1
(B) MCL1^−/− cells were treated with 100 nM of BM-1197 for 16 h and stained with Annexin V/PI for flow cytometry. […] They are given in the order upper left, upper right, lower left, lower right.

Bcl-xL = target: T2, Bcl-xL (Mus musculus, UniProt Q64373); test: cellular thermal shift assay (CETSA), Bcl-xL; format: cell-based; settings: MEF MCL1−/− cells
T2 construct: endogenous in cells; host or cells: MEF MCL1-/- cells
T2 sequence (Q64373 whole entry): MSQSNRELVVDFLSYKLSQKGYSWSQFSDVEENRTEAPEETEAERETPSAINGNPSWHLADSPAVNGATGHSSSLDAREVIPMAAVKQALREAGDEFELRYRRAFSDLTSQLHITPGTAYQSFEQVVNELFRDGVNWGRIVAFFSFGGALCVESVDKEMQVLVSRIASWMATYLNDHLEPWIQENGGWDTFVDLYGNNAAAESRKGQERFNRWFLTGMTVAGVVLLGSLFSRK
Procedure: as §2, §3

H187 = test: SCLC cell growth inhibition (WST-8), H187; format: cell-based; settings: Homo sapiens, NCI-H187; 96-h incubation, means ± SD (n = 3–6)
Procedure: as §1

platelets = test: platelet count / on-target platelet toxicity in mice; format: in vivo
Procedure: BM-1197 was administered by IV bolus injected into the tail vein of the mice. Mice were euthanized at different time points with CO2, then ∼0.2 ml of blood was drawn by cardiac puncture using an EDTA treated syringe, transferred to an EDTA treated tube and sent immediately for a Complete Blood Count. The samples were read at the University of Michigan Animal Diagnostic Laboratory on a HEMAVET 950FS Hematology Analyzer.
Figure 11 BM-1197 decreases platelet count in mice. BM-1197 was administered by IV bolus injected into the tail vein. At the indicated time points the mice were euthanized and blood was drawn for complete blood count. Data are mean ± SEM (n = 3).

H889 = test: SCLC cell growth inhibition (WST-8), H889; format: cell-based; settings: Homo sapiens, NCI-H889; 96-h incubation, means ± SD (n = 3–6)
Procedure: as §1

H1963 xenograft tumors = test: H1963 subcutaneous xenograft model; format: in vivo, SCID mice
Procedure: as §4, §5

[5] = IV daily 10 mg/kg, 5 days per week for 2 weeks, 8 mice
[6] = single dose 10 mg/kg IV, as early as 3 h, persisting at least 24 hr

- IC50 (Bcl-2 [2]): 3.5 ± 0.7 nM
- Ki (Bcl-2 [2]): < 1 nM and 0.7 nM
- IC50 (H146; NCI-H146, 96 h, read-out: IC50 (1% FBS), H146, 4 days, WST assay, 1% FBS): 1.9 nM
- IC50 (H146; NCI-H146, 96 h, read-out: IC50 (1% FBS+3% HSA), H146, 4 days, WST assay, 1% FBS+3% HSA): 1.9 nM
- IC50 (H146; NCI-H146, 96 h, read-out: IC50 (10% FBS), H146, 4 days, WST assay, 10% FBS): 2.6 nM
- IC50 (H146; NCI-H146, 96 h, read-out: IC50 (50% FBS), H146, 4 days, WST assay, 50% FBS): 4.8 nM
- IC50 (H146; NCI-H146, 96-h incubation, means ± SD (n = 3–6), read-out: IC50 cell growth, H146): 3 ± 2 nM
- IC50 (H211): 6 ± 5 nM
- thermal stability of Bcl-2 protein (Bcl-2 [3]): enhanced
- IC50 (SW1271): 306 ± 116 nM
- IC50 (H196): > 2000 nM
- thermal stability of Bcl-xL protein (Bcl-xL; 1 µM, 1 h): enhanced
- lowest concentration that efficiently stabilized BCL-xL protein (Bcl-xL; 1 h treatment): 16 nM
- IC50 (H187): 31 ± 4 nM
- IC50 (H889): 82 ± 20 nM
- weight loss (H1963 xenograft tumors; both daily and weekly dose-schedules): < 10%
Compound: Cc1c(S(C)(=O)=O)c(-c2cc(F)cc(N3CCN(c4ccc(NS(=O)(=O)c5ccc(N[C@H](CCN6CCC(O)CC6)CSc6ccccc6)c(S(=O)(=O)C(F)(F)F)c5)cc4)CC3)c2)c(-c2ccc(Cl)cc2)n1C(C)C [BM-1197]
- fold more potent than ABT-263 ([1]; 4 cell lines most sensitive to BM-1197): 5-26 fold
- IC50 ([1]; 2 of 12 SCLC cell lines, read-out: IC50 values in the 2 cell lines with weak activity): > 2000 nM
- IC50 ([1]; 3 of 12 SCLC cell lines, read-out: IC50 values in the 3 cell lines with moderate activity): ~600 nM
- IC50 ([1]; 7 of 12 SCLC cell lines, read-out: IC50 values in the 7 cell lines with potent activity): 3 to 82 nM
- IC50 (DMS53): 538 ± 254 nM
- IC50 (DMS273): > 2000 nM
- mice tumor free 50 days after the end of the weekly treatment (H146 xenograft tumors; 15 mg/kg weekly IV): 5 of 8
- mice with complete tumor regression after eight weekly doses (H146 xenograft tumors; 15 mg/kg weekly IV): 7 of 8
- mice with complete tumor regression after five weekly doses (H146 xenograft tumors; 15 mg/kg weekly IV): 4 of 8
- decrease of mean tumor volume after 7 doses (H146 xenograft tumors; IV daily 10 mg/kg): 85%
- decrease of mean tumor volume after two doses (H146 xenograft tumors; IV daily 10 mg/kg): 40%
- mice tumor free 60 days after the end of the treatment (H146 xenograft tumors; [5]): 5 mice
- mice tumor free for at least 32 days after the end of the treatment (H146 xenograft tumors; [5]): 8 mice
- mice with rapid and complete tumor regression (H146 xenograft tumors; [5]): 8 mice
- mean tumor volume after two doses (H146 xenograft tumors; IV daily 10 mg/kg, from 114 mm^3): 69 mm^3
- weight loss compared to control group (H146 xenograft tumors; all dose-schedules in H146 model, no other signs of toxicity): no statistically significant weight loss
- reduction of mean tumor volume on day 7 (H146 xenograft tumors; single 10 mg/kg dosing, weekly IV schedule): 32%
- tumor regression on day 7 (H146 xenograft tumors; single 15 mg/kg dosing, weekly IV schedule): 66%
- apoptosis biomarkers in H146 tumors (H146 xenograft tumors; [6]): rapid and robust caspase-3 activation and PARP cleavage
- times more potent than ABT-263 in inhibition of cell growth ([4]; MCL1−/− cells): ~8 times
- IC50 ([4]; Mus musculus, MEF, 72 h, 3 days, WST assay): 5 ± 3 nM
- lowest platelet count (platelets; 15 mg/kg IV bolus, at 24 h): 96000 µL⁻¹
- bleeding (platelets; repeated daily or weekly intravenous doses in efficacy experiments): did not observe any bleeding
- decrease of mean tumor volume seven days after initiation of treatment (H1963 xenograft tumors; 10 mg/kg daily IV dosing): > 90%
- mice with tumor regrown 40 days after the last dose (H1963 xenograft tumors; 10 mg/kg daily IV dosing): 1 of 6
- mice with complete tumor regression (H1963 xenograft tumors; 10 mg/kg daily IV dosing (5 days per week), 6 mice): 6 mice
- mice tumor free for 61 days after the last dose (H1963 xenograft tumors; 10 mg/kg daily IV dosing, 6 mice): 5 mice
- mice with palpable tumor on day 59 (H1963 xenograft tumors; daily dosing at 10 mg/kg): one of six mice
- apoptosis biomarkers in H1963 tumors (H1963 xenograft tumors; [6]): rapid and robust caspase-3 activation and PARP cleavage
- duration of complete tumor regression in 5 out of 6 mice (H1963 xenograft tumors; weekly dosing (15 mg/kg)): 38 days
- duration of complete tumor regression in all mice (H1963 xenograft tumors; weekly dosing (15 mg/kg)): 17 days
- reduction of mean tumor volume after a single dose (H1963 xenograft tumors; weekly dosing (15 mg/kg)): 66%
- tumor response after two doses (H1963 xenograft tumors; weekly dosing (15 mg/kg)): complete tumor regression
- mice with re-occurring tumor on day 59 (H1963 xenograft tumors; weekly dosing at 15 mg/kg): all mice
